Assays:
[1] = test system: hWB; test: IC50 hWB (TNF-α release assay); assay type: cell-based; details: Homo sapiens
[2] = biological target: T1, p38-α (Homo sapiens, UniProt Q16539); test: p38 kinase assay, p38-α with peptide substrate (Caliper LabChip); assay type: biochemical; details: read-out: IC50 p38a*peptide
T1 construct: purchased Millipore
Protocol: Alternatively, p38 kinase assays were performed in a reaction volume of 70 µL in a 384-well plate, at 30° for […] under the following conditions: 50 mM Hepes, pH 7.4, 10 mM MgCl2, 1 mg/ml FA Free BSA, 1 mM DTT, 10 μM ATP, 10 μM p38 peptide [Caliper Life Sciences FL-Peptide 8 (5-FAM-IPTSPITTTYFFEKKK-COOH)] and 5.7 nM p38-α (Millipore), or 14.3 nM unactivated MAPKAP kinase-2, 0.18 nM p38-α (Millipore) and 2 uM RSK peptide [Caliper Life Sciences FL-Peptide 11 (5-FAM-KKLNRTLSVA-COOH)]. Serial dilutions of compounds were added to each reaction in 700 nL DMSO. 700 nL of DMSO was added to the control wells of the reaction plate as the no inhibitor control for each inhibitor titration. The reaction was terminated by the addition of 15 μL of a 100 mM EDTA. Product formation was analyzed using the Caliper LabChip 3000. The Separation buffer contained 100 mM HEPES pH 7.5, 0.015% Brij-35, 2.5% Coating Reagent #3 (Caliper Life Sciences) and 10 mM EDTA. Calculation of the substrate product ratios are performed using the HTS Well Analyzer software provided by Caliper Life Sciences and the percent inhibition at each compound concentration is determined.

T1 sequence (Q16539 whole entry): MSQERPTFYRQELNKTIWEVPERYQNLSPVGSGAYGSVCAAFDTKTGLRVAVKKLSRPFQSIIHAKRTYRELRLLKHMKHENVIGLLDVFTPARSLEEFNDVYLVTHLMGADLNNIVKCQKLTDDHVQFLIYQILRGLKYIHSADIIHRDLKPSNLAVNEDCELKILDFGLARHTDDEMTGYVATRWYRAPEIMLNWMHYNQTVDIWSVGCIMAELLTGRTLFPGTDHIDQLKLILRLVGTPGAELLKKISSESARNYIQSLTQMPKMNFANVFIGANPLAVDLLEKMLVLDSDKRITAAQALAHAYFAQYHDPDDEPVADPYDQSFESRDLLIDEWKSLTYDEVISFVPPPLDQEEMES

| Structure (SMILES) | IC50 [1] [µM] | IC50 [2] [µM] |
| --- | --- | --- |
| O=C(NCc1nnc(-c2ccc(F)cc2)s1)c1cc(C(=O)c2c(F)cc(F)cc2F)c[nH]1 [Example 8, N-{[5-(4-fluorophenyl)-1,3,4-thiadiazol-2-yl]methyl}-4-(2,4,6-trifluorobenzoyl)-1H-pyrrole-2-carboxamide] | 1 | 0.05 |
| O=C(NCc1nnc(-c2cccc(F)c2)s1)c1cc(C(=O)c2c(F)cc(F)cc2F)c[nH]1 [Example 9, N {[5-(3-fluorophenyl)-1,3,4-thiadiazol-2-yl]methyl}-4-(2,4,6-trifluorobenzoyl)-1H-pyrrole-2-carboxamide] | 3.49 | 0.462 |
| Cc1nnc(CNC(=O)c2cc(C(=O)c3c(F)cc(F)cc3F)c[nH]2)s1 [Example 1, N-[(5-methyl-1,3,4-thiadiazol-2-yl)methyl]-4-(2,4,6-trifluorobenzoyl)-1-H-pyrrole-2-carboxamide] | 0.467 | 0.167 |
| Cc1cc(-c2nnc(CNC(=O)c3cc(C(=O)c4c(F)cc(F)cc4F)c[nH]3)s2)nn1C [Example 33, N-{[5-(1,5-dimethyl-1H-pyrazol-3-yl)-1,3,4-thiadiazol-2-yl]methyl}-4-(2,4,6-trifluorobenzoyl)-1H-pyrrole-2-carboxamide] | – | 0.0351 |
| O=C(NCc1nnc(-c2ccn[nH]2)s1)c1cc(C(=O)c2c(F)cc(F)cc2F)c[nH]1 [Example 32, N-{[5-(1H-pyrazol-5-yl)-1,3,4-thiadiazol-2-yl]methyl}-4-(2,4,6-trifluorobenzoyl)-1H-pyrrole-2-carboxamide] | 0.084 | 0.043 |
| O=C(NCc1nnc(-c2csnn2)s1)c1cc(C(=O)c2c(F)cc(F)cc2F)c[nH]1 [Example 30, N-{[5-(1,2,3-thiadiazol-4-yl)-1,3,4-thiadiazol-2-yl]methyl}-4-(2,4,6-trifluorobenzoyl)-1H-pyrrole-2-carboxamide] | – | 0.634 |
| O=C(NCc1nnc(-c2[nH]nc3c2CCC3)s1)c1cc(C(=O)c2c(F)cc(F)cc2F)c[nH]1 [Example 31, N-{[5-(2,4,5,6-tetrahydrocyclopenta[c]pyrazol-3-yl)-1,3,4-thiadiazol-2-yl]methyl}-4-(2,4,6-trifluorobenzoyl)-1H-pyrrole-2-carboxamide] | – | 0.036 |
| O=C(NCc1nnc(-c2n[nH]c3ccccc23)s1)c1cc(C(=O)c2c(F)cc(F)cc2F)c[nH]1 [Example 28, N-{[5-(1H-indazol-3-yl)-1,3,4-thiadiazol-2-yl]methyl}-4-(2,4,6-trifluorobenzoyl)-1H-pyrrole-2-carboxamide] | 0.36 | 0.069 |
| O=C(NCc1nnc(-c2ccc(=O)[nH]c2)s1)c1cc(C(=O)c2c(F)cc(F)cc2F)c[nH]1 [Example 36, N-{[5-(6-oxo-1,6-dihydropyridin-3-yl)-1,3,4-thiadiazol-2-yl]methyl}-4-(2,4,6-trifluorobenzoyl)-1H-pyrrole-2-carboxamide] | – | 0.0704 |
| O=C(NCc1nnc(-c2cccnc2)s1)c1cc(C(=O)c2c(F)cc(F)cc2F)c[nH]1 [Example 13, N-[(5-pyridin-3-yl-1,3,4-thiadiazol-2-yl)methyl]-4-(2,4,6-trifluorobenzoyl)-1H-pyrrole-2-carboxamide] | 0.747 | 0.04 |
| O=C(NCc1nnc(-c2cc(C(F)(F)F)n[nH]2)s1)c1cc(C(=O)c2c(F)cc(F)cc2F)c[nH]1 [Example 27, 4-(2,4,6-trifluorobenzoyl)-N-({5-[3-(trifluoromethyl)-1H-pyrazol-5-yl]-1,3,4-thiadiazol-2-yl}methyl)-1H-pyrrole-2-carboxamide] | – | 1.4 |
| O=C(NCc1nnc(-c2cn[nH]n2)s1)c1cc(C(=O)c2c(F)cc(F)cc2F)c[nH]1 [Example 34, N-{[5-(2H-1,2,3-triazol-4-yl)-1,3,4-thiadiazol-2-yl]methyl}-4-(2,4,6-trifluorobenzoyl)-1,1-pyrrole-2-carboxamide] | – | 0.18 |
| Cc1nnc(CNC(=O)c2cc(C(=O)c3c(F)cccc3F)c[nH]2)s1 [Example 40, 4-(2,6-difluorobenzoyl)-N-[(5-methyl-1,3,4-thiadiazol-2-yl)methyl]-1H-pyrrole-2-carboxamide] | – | 0.15 |
| CC(C)(C)c1nnc(CNC(=O)c2cc(C(=O)c3c(F)cc(F)cc3F)c[nH]2)s1 [Example 5, N-[(5-tert-butyl-1,3,4-thiadiazol-2-yl)methyl]-4-(2,4,6-trifluorobenzoyl)-1H-pyrrole-2-carboxamide] | – | 0.608 |
| O=C(NCc1nnc(-c2ccccn2)s1)c1cc(Cc2c(F)cc(F)cc2F)c[nH]1 [Example 44, N-[(5-pyridin-2-yl-1,3,4-thiadiazol-2-yl)methyl]-4-(2,4,6-trifluorobenzyl)-1H-pyrrole-2-carboxamide] | – | 0.555 |
| CC(C)c1nnc(CNC(=O)c2cc(C(=O)c3c(F)cc(F)cc3F)c[nH]2)s1 [Example 3, N-[(5-isopropyl-1,3,4-thiadiazol-2-yl)methyl]-4-(2,4,6-trifluorobenzoyl)-1-H-pyrrole-2-carboxamide] | – | 0.479 |
| COc1cccc(-c2nnc(CNC(=O)c3cc(C(=O)c4c(F)cc(F)cc4F)c[nH]3)s2)n1 [Example 18, N-{[5-(6-methoxypyridin-2-yl)-1,3,4-thiadiazol-2-yl]methyl}-4-(2,4,6-trifluorobenzoyl)-1H-pyrrole-2-carboxamide] | – | 0.094 |

More lines, in order of falling IC50 [2], values ahead:

| IC50 [1] [µM] | IC50 [2] [µM] | Structure (SMILES) |
| --- | --- | --- |
| – | 1.02 | CCC(C)c1nnc(CNC(=O)c2cc(C(=O)c3c(F)cc(F)cc3F)c[nH]2)s1 (stereo not shown) [Example 24, N-[(5-sec-butyl-1,3,4-thiadiazol-2-yl)methyl]-4-(2,4,6-trifluorobenzoyl)-1H-pyrrole-2-carboxamide] |
| – | 0.826 | CC1(c2nnc(CNC(=O)c3cc(C(=O)c4c(F)cc(F)cc4F)c[nH]3)s2)CC1 [Example 23, N-{[5-(1-methylcyclopropyl)-1,3,4-thiadiazol-2-yl]methyl}-4-(2,4,6-trifluorobenzoyl)-1H-pyrrole-2-carboxamide] |
| – | 0.489 | O=C(NCc1nnc(C2CCC2)s1)c1cc(C(=O)c2c(F)cc(F)cc2F)c[nH]1 [Example 22, N-[(5-cyclobutyl-1,3,4-thiadiazol-2-yl)methyl]-4-(2,4,6-trifluorobenzoyl)-1H-pyrrole-2-carboxamide] |
| – | 0.222 | Cc1nnc(CNC(=O)c2cc(C(=O)c3ccc(F)cc3F)c[nH]2)s1 [Example 39, 4-(2,4-difluorobenzoyl)-N-[(5-methyl-1,3,4-thiadiazol-2-yl)methyl]-1H-pyrrole-2-carboxamide] |
| – | 0.173 | O=C(NCc1nnc(-c2cccc(=O)[nH]2)s1)c1cc(C(=O)c2c(F)cc(F)cc2F)c[nH]1 [Example 37, N-{[5-(6-oxo-1,6-dihydropyridin-2-yl)-1,3,4-thiadiazol-2-yl]methyl}-4-(2,4,6-trifluorobenzoyl)-1H-pyrrole-2-carboxamide] |
| – | 0.135 | CCOc1ncccc1-c1nnc(CNC(=O)c2cc(C(=O)c3c(F)cc(F)cc3F)c[nH]2)s1 [Example 16, N-{[5-(2-ethoxypyridin-3-yl)-1,3,4-thiadiazol-2-yl]methyl}-4-(2,4,6-trifluorobenzoyl)-1H-pyrrole-2-carboxamide] |
| – | 0.085 | COc1cc(-c2nnc(CNC(=O)c3cc(C(=O)c4c(F)cc(F)cc4F)c[nH]3)s2)ccn1 [Example 19, N-{[5-(2-methoxypyridin-4-yl)-1,3,4-thiadiazol-2-yl]methyl}-4-(2,4,6-trifluorobenzoyl)-1H-pyrrole-2-carboxamide] |
| 0.168 | 0.0375 | O=C(NCc1nnc(-c2ccc[nH]c2=O)s1)c1cc(C(=O)c2c(F)cc(F)cc2F)c[nH]1 [Example 35, N-{[5-(2-oxo-1,2-dihydropyridin-3-yl)-1,3,4-thiadiazol-2-yl]methyl}-4-(2,4,6-trifluorobenzoyl)-1H-pyrrole-2-carboxamide] |
| – | 0.031 | COc1ccc(-c2nnc(CNC(=O)c3cc(C(=O)c4c(F)cc(F)cc4F)c[nH]3)s2)cc1 [Example 10, N-{[5-(4-methoxyphenyl)-1,3,4-thiadiazol-2-yl]methyl}-4-(2,4,6-trifluorobenzoyl)-1H-pyrrole-2-carboxamide] |
| – | 0.0269 | O=C(NCc1nnc(-c2cc[nH]c(=O)c2)s1)c1cc(C(=O)c2c(F)cc(F)cc2F)c[nH]1 [Example 38, N-{[5-(2-oxo-1,2-dihydropyridin-4-yl)-1,3,4-thiadiazol-2-yl]methyl}-4-(2,4,6-trifluorobenzoyl)-1H-pyrrole-2-carboxamide] |
| 0.163 | 0.024 | CC(C)Cc1cc(-c2nnc(CNC(=O)c3cc(C(=O)c4c(F)cc(F)cc4F)c[nH]3)s2)[nH]n1 [Example 26, N-{[5-(3-isobutyl-1H-pyrazol-5-yl)-1,3,4-thiadiazol-2-yl]methyl}-4-(2,4,6-trifluorobenzoyl)-1H-pyrrole-2-carboxamide] |
| 0.262 | 0.022 | Cc1cc(-c2nnc(CNC(=O)c3cc(C(=O)c4c(F)cc(F)cc4F)c[nH]3)s2)[nH]n1 [Example 20, N-{[5-(3-methyl-1H-pyrazol-5-yl)-1,3,4-thiadiazol-2-yl]methyl}-4-(2,4,6-trifluorobenzoyl)-1H-pyrrole-2-carboxamide] |
| 0.885 | 0.017 | O=C(NCc1nnc(-c2cc3ncccn3n2)s1)c1cc(C(=O)c2c(F)cc(F)cc2F)c[nH]1 [Example 29] |
